One assay concerns the target T1, Calf DNA polymerase α (Bos taurus, UniProt A0AAA9TD94).
T1 construct: made in house
T1 sequence (A0AAA9TD94 1-1441): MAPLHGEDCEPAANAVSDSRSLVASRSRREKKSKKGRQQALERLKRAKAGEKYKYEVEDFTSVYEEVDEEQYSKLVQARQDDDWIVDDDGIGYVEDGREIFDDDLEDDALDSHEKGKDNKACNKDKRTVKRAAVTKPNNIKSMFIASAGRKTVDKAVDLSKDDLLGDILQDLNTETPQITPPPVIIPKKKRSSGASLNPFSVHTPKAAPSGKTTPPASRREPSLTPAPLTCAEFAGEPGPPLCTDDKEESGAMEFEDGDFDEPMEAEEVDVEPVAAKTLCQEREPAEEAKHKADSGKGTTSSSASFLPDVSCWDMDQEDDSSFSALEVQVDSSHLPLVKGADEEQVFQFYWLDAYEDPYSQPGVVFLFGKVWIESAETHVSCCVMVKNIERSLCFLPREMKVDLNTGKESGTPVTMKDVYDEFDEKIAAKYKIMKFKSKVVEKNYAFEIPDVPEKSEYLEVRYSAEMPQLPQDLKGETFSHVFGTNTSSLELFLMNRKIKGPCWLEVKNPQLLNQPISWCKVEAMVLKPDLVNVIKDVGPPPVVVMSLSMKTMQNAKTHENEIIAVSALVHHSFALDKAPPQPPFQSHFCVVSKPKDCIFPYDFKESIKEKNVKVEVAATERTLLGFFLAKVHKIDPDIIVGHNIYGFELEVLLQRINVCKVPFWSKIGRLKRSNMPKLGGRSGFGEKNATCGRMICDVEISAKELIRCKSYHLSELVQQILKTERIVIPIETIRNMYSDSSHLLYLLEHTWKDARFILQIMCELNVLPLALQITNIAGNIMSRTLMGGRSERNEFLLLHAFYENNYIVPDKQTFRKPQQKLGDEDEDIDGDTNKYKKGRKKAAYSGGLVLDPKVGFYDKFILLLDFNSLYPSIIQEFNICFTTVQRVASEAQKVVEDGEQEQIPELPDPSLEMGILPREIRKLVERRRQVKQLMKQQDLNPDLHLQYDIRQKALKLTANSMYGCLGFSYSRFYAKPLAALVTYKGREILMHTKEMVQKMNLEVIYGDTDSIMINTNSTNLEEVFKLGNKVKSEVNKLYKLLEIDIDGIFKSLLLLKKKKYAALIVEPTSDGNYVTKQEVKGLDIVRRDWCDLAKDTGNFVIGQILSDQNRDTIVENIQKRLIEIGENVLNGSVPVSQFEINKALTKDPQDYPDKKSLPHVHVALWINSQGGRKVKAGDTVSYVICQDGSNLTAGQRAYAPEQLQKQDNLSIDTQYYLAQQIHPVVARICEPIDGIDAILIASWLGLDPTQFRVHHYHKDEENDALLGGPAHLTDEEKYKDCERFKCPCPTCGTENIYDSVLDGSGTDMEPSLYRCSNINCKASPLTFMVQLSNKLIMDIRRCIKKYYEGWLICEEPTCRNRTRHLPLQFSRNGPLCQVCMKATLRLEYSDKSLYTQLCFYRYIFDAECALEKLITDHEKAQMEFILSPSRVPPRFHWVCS
The assay is described as follows: DNA polymerase activity assay, calf pol α. The assay is classed as biochemical. Conditions: for Inhibitory effect on calf pol α activity: 50 μM of each compound, Figure 2. How it is done: Pols from mammals, a fish (cherry salmon), an insect (fruit fly) and a plant (cauliflower) were purified, and prokaryotic pols and other DNA metabolic enzymes, such as T7 RNA polymerase, T4 polynucleotide kinase and bovine deoxyribonuclease I, were purchased as described in our previous report. The activities of all pols and other DNA metabolic enzymes were measured as described in previous reports.
The components of the pol assay were poly(dA)/oligo(dT)18 and dTTP as the DNA template-primer and 2′-deoxyribonucleoside 5′-triphosphate (dNTP) substrate, respectively. VK2, VK3, and their synthesized derivatives (i.e., MK-3, MK-2 and MK-1) were dissolved in dimethyl sulfoxide (DMSO) at various concentrations and sonicated for 30 s. The sonicated samples (4 μL) were mixed with 16 μL of each pol enzyme (final amount, 0.05 units) in 50 mM Tris-HCl (pH 7.5) containing 1 mM dithiothreitol, 50% glycerol and 0.1 mM EDTA, and kept at 0 °C for 10 min. These inhibitor–enzyme mixtures (8 μL) were added to 16 μL of each standard enzyme reaction mixture (50 mM Tris-HCl [pH 7.5], 1 mM dithiothreitol, 1 mM MgCl2, 15% glycerol, 10 μM poly(dA)/oligo(dT)18 and 10 μM [^3H]-dTTP), and incubation was carried out at 37 °C for 60 min, except for Taq pol, which was incubated at 74 °C for 60 min. Activity without the inhibitor was considered to be 100%, and the activity remaining at each concentration of inhibitor was determined relative to this value. One unit of pol activity was defined as the amount of enzyme that catalyzed the incorporation of 1 nmol dNTP (dTTP) into the synthetic DNA template-primer (poly(dA)/oligo(dT)18, A/T = 2/1) in 60 min at 37 °C under normal reaction conditions for each enzyme (scintillation counts: approximately 1 pmol of incorporated radioactive nucleotides = 100 cpm).

For assay [1], the system named is TPA-induced edema on mouse ear. The assay is described as follows: TPA-induced mouse ear inflammatory test. The assay is classed as in vivo. Conditions: 250 or 500 μg applied to ear 30 min before TPA (0.5 μg); edema evaluated after 7 h; Figure 3. How it is done:
All animal studies were performed according to the guidelines outlined in the “Care and Use of Laboratory Animals” of Kobe University. The animals were anesthetized with pentobarbital before undergoing cervical dislocation. Female 8-week-old C57BL/6 mice that had been bred in-house with free access to food and water were used for all experiments. All of the mice were maintained under a 12-h light/dark cycle and housed at a room temperature of 25 °C.
The mouse inflammatory test was performed according to Gschwendt’s method. In brief, an acetone solution of the VK2 and VK3 intermediates (250 or 500 μg in 20 μL) or 20 μL of acetone as a vehicle control was applied to the inner part of the mouse ear. Thirty minutes after the test compound was applied, a TPA solution (0.5 μg/20 μL of acetone) was applied to the same part of the ear. To the other ear of the same mouse, methanol, followed by TPA solution, was applied as a control. After 7 h, a disk (6 mm diameter) was obtained from the ear and weighed. The inhibitory effect (IE) is presented as a ratio of the increase in weight of the ear disks: IE=[(TPA only)−(tested compound plus TPA)]/[(TPA only)−(vehicle)]×100

The source of these data is article PMC3083694, “Effects of Intermediates between Vitamins K2 and K3 on Mammalian DNA Polymerase Inhibition and Anti-Inflammatory Activity” (International Journal of Molecular Sciences, 2011).

SMILES strings stand for the structures.

Regarding `CC(C)=CCC1=C(C)C(=O)c2ccccc2C1=O` [MK-1], the “Inhibitory effect on calf pol α activity” value on Calf DNA polymerase α was “inhibited the activity”. For the same molecule, the “Anti-inflammatory activity toward TPA-induced edema on mouse ear” value in assay [1] was “suppressed inflammation”.
For the molecule `CC(C)=CCC/C(C)=C/CC1=C(C)C(=O)c2ccccc2C1=O` [MK-2], the “Inhibitory effect on calf pol α activity” value on Calf DNA polymerase α is recorded as “inhibited the activity”. For the same molecule, the IC50 – broadly, the midpoint of a concentration-inhibition curve – on Calf DNA polymerase α (B-family pol, read-out: IC50 Value of MK-2, Calf DNA polymerase α) worked out at 27.6 ± 1.6 µM. Besides, the “Anti-inflammatory activity toward TPA-induced edema on mouse ear” value in assay [1] is given as “suppressed inflammation”.
As for `CC(C)=CCC/C(C)=C/CC/C(C)=C/CC1=C(C)C(=O)c2ccccc2C1=O` [MK-3], the “Inhibitory effect on calf pol α activity” value at Calf DNA polymerase α is listed as “inhibited the activity”. Moreover, in assay [1], the “Anti-inflammatory activity toward TPA-induced edema on mouse ear” value is “weak effect”.
The matching figures for `CC(C)=CCC/C(C)=C/CC/C(C)=C/CC/C(C)=C/CC1=C(C)C(=O)c2ccccc2C1=O` [MK-4, menaquinone 4, reference compound]: “had no effect on pol activity” and “weak effect”.
